Measured values as given in article PMC7146544, “Dual Plasmepsin-Targeting Antimalarial Agents Disrupt Multiple Stages of the Malaria Parasite Life Cycle” (Cell Host & Microbe, 2020).
Entries after “also recorded” stand apart in the source; their conditions may differ.

Key:
P. berghei = assay: Merosome transfer from treated HepG2 cultures to mice; assay type: in vivo, Plasmodium berghei; details: HepG2 cultures treated with 1 nM, washed
Protocol: (§1) To infect cells, freshly isolated PbmCherryLuci salivary gland sporozoites were resuspended in complete medium and 10^4 sporozoites added to each well (MOI 0.34) before spinoculation at 500 x g for 3 min. Sporozoites were allowed to infect cells for 3 h before washing with complete medium. […] The compound containing medium was changed the next morning before 48 hpi to prevent removal of detached cells and merosomes in the supernatant at later time points ([Sturm et al., 2006]). To measure inhibition of parasitised cell detachment in the treated cultures, each well was imaged for mCherry at 20x magnification using an Opera Phenix High Content Screening System (PerkinElmer) at 48 hpi (live cell microscopy) and again at 65 hpi following fixation with 4% formalin in PBS, and the number of mCherry^+ parasites counted using the Columbus Image Data Storage and Analysis System (PerkinElmer). Cell detachment was calculated as the percent of parasites lost from the monolayer between 48 – 65 hpi. The culture supernatant containing merosomes and detached parasitised cells from each well was collected at 65 hpi, washed once in complete media by centrifugation at 500 x g for 3 min, then i.v. injected into individual male Swiss mice. Daily Giemsa stained thin blood smears were monitored for patent blood infection as described previously.

P. berghei liver stages = assay: In vitro analysis of P. berghei liver parasites in HepG2 cells; assay type: cell-based, Plasmodium berghei; details: 100 nM from 24 hpi
Protocol: as §1
Following fixation at 65 hpi, infected hepatocyte monolayers were blocked and permeabilized in PBS containing 1% BSA and 0.1% Triton X-100 (blocking buffer) for 1 h before incubation with polyclonal Goat-anti-PbUIS4 (1:500) and Rabbit-anti-PyMSP1_19 antiserum (1:200) for 1 h. After 3 washes in PBS to remove primary antibodies, wells were incubated sequentially with secondary antibodies recognizing Goat IgG (Alexa Fluor 488; 1:500) and then Rabbit IgG (Alexa Fluor 633; 1:500) for 1 h, separated by 3 washes with PBS. All antibody incubations were performed in blocking buffer at room temperature protected from light, and 2 μg/mL DAPI was added to the last incubation with secondary antibody to stain DNA. The center of each well was then imaged across a 12 μm z stack at 63x magnification using an Opera Phenix (PerkinElmer) for the above fluorochromes as well as mCherry to reveal parasite cytoplasm. Data was transferred to Columbus (PerkinElmer) and at least 70 parasites per condition were then manually scored based on a previously described staging system ([Graewe et al., 2011]). […] More extensive membrane invaginations surrounding individual nuclei with well segmented parasite cytoplasm and intact UIS4 staining were scored as ‘merozoite’ stage. ‘Egressed’ parasites were classified as either well segmented merozoite stages with evidence for PVM breakdown, or largely intact PVM vacuoles in which significant loss of parasite material was evident (Figure S6).

P. falciparum = P. falciparum humanized NOD-scid IL2R_null mouse model
Protocol: Compounds were tested in the murine P. falciparum SCID model ([Angulo-Barturen et al., 2008]). […] The mice were intravenously infected with 2 × 10^7 P. falciparum Pf3D7-infected erythrocytes (day 0) ([Angulo-Barturen et al., 2008]). On day 3 after infection, mice were randomly allocated to treatments that were administered once a day for 4 consecutive days (n = 3 mice) by oral gavage at 10 mL/kg. Parasitemia was measured by microscopy. Chimerism was monitored by flow cytometry using anti-murine erythrocyte TER119 monoclonal antibody (PharMingen, San Diego, CA) and SYTO-16 and then analyzed by flow cytometry in serial 2 μL blood samples taken every 24 h until assay completion.

P. berghei sporozoites = assay: In vivo analysis of P. berghei liver parasite growth and transition to blood infection; set-up: species or system Plasmodium berghei
Protocol: Female BALB/c mice were infected with PbmCherryLuci sporozoites by either intravenous injection or infectious mosquito bite challenge. Mice (infected by either route) received either no treatment or were treated orally with WM382 (prepared as previously described) at doses and h post infection (hpi) as indicated. For i.v. injections, freshly isolated salivary gland sporozoites were filtered through glass wool to remove debris before 40,000 sporozoites were resuspended in 200 μL Schneider’s Insect Media immediately prior to injection. For infection by mosquito bite, the percent of mosquitoes that contained oocysts was used to place 5 infected mosquitoes in individual feeding cups (for example, if 83% of mosquitoes in the batch had oocysts then 6 mosquitoes were placed in each cup). Mice were anesthetised using ketamine/xylazine and placed on individual feeding cups to begin the infection. Mosquitoes were allowed to feed on the mice for 15 min and mice were rotated between feeding cups every min to promote probing and ensure that all mice were equally exposed to infectious mosquito bites. From day 3 – 30 post infection mice were monitored daily for the presence of parasites in Giemsa stained thin blood smears and considered to be protected from blood infection if they remained negative through this period.
In addition to monitoring thin blood smears, luciferase activity was used to measure liver infection (52 hpi), liver egress (55 hpi) and transition to initial blood infection (65 hpi) in mice infected intravenously. Briefly, mice were injected i.p. with 200 μL XenoLight D-Luciferin (PerkinElmer) and returned to their cage for 5 min prior to anesthesia by isofluorane inhalation for a further 5 min. Between 10 – 15 min post injection of D-luciferin, mice were maintained under isofluorane anesthesia and bioluminescent signal collected using an IVIS Lumina S5 system (PerkinElmer) with a medium binning factor and 3 min integration time. Bioluminescence emanating from a region of interest (ROI) covering the liver region (52 and 55 hpi) or whole animal (65 hpi) was quantified using Living Image software version 4.7.2 (PerkinElmer) and expressed as the total flux in photons/second (p/s). Background flux was measured using an identically sized ROI placed over the lower pelvic region below the liver (52 and 55 hpi) or uninfected mice (65 hpi) and is expressed as the limit of detection (LOD). The parasitemia of the first round of erythrocytic infection was measured at 65 hpi using a LSRFortessa X20 (Becton Dickinson) flow cytometer. Briefly, a drop of whole blood was collected from the tail in 200 μL human tonicity (HT) PBS and immediately analyzed. To identify infected blood cells, mCherry signal intensity was plotted against GFP signal intensity as a decoy reporter. The number of mCherry^+ / GFP^— events are reported per 1 × 10^6 whole blood cells with blood from uninfected mice used as a negative control.

[1] = i.v. sporozoites, 2 × 20 mpk oral
[2] = i.v. sporozoites, oral 20 mpk or 100 mpk b.i.d. at 36 and 48 hpi
[3] = mosquito bite infection, 20 mpk at 36 hpi
[4] = mosquito bite infection, 50 mpk at 36 hpi

CCC1(CC)CC(=O)N([C@@H]2CCOc3ccc(C(=O)N[C@H]4CC(C)(C)Oc5ccccc54)cc32)C(=N)N1 [WM382]
blood infection of naive mice after i.v. injection of 65 hpi supernatants (P. berghei): Blood infection was initiated in mice | detachment of parasitized HepG2 cells at 65 hpi (P. berghei liver stages): decrease in detachment; also recorded: reduced detachment of parasitized HepG2 cells | egress of exoerythrocytic merozoites from hepatocytes in vitro (P. berghei liver stages): incomplete inhibitory effect; also recorded: reduced rates | liver parasite size and maturity at 65 hpi (P. berghei liver stages): increased size of parasites; also recorded: accumulation of larger, mature liver parasites containing merozoites without PVM degradation | merozoite formation by liver stages (P. berghei liver stages): normal | liver parasite number or size at 48 hpi (P. berghei liver stages; HepG2 cells): did not reduce parasite number or size | day by which mice were cleared of parasitemia (P. falciparum; WM382 3 mpk oral q.d. 4 days from day 3): ≤ 7 days | day by which mice were cleared of parasitemia (P. falciparum; WM382 10 mpk oral q.d. 4 days from day 3): ≤ 7 days | day by which mice were cleared of parasitemia (P. falciparum; WM382 30 mpk oral q.d. 4 days from day 3): ≤ 6 days | efficacy against P. falciparum including parasitemia clearance rate, compared with chloroquine (P. falciparum; in vivo and in vitro): at least equivalent to chloroquine | delay to patency (P. berghei sporozoites; [1]): > 4 days | sterile protection against blood infection (P. berghei sporozoites; [1]): 50% | sterile protection against blood infection (P. berghei sporozoites; i.v. sporozoites, 2 × 100 mpk oral): 100% | killing of liver stages and liver egress by 55 hpi (P. berghei sporozoites; [2]): did not kill P. berghei liver stages or markedly prevent liver egress in vivo | parasite liver infection at 52 hpi (P. berghei sporozoites; [2]): no effect | delay to patency (P. berghei sporozoites; [3]): 2 days | protection from blood infection (P. berghei sporozoites; [3]): all mice developed blood infection | delay to patency (P. berghei sporozoites; [4]): 5 days | sterile protection (P. berghei sporozoites; [4]): 80% | protection from patent infection (P. berghei sporozoites; mosquito bite infection, single dose 100 mpk at 36 hpi): protect all mice from developing patent infection | protection from blood infection, prophylactic treatment (P. berghei sporozoites; single dose 50 mpk 4 h before mosquito bite infection): did not confer any protection
